We go through nine molecules from patent US20020198219A1, “2-pyridinamine compositions and related methods” (priority 2000, published 2002).

Read-outs that look alike come from different tables or passages of the source. Some results are limits rather than exact numbers.

In data set [1] the test system is differentiated P19 neurons. Briefly: Differentiated P19 excitotoxicity assay (glutamate/glycine-induced death, Alamar Blue). The data set is classed as cell-based, murine. To be noted: for IC50: read-out: IC50 for Neuroprotection [lower-upper 95% C.I.]; for Emax: read-out: Maximal Efficacy for Neuroprotection. As for the experimental part:
Alamar Blue fluorescence, an indicator of cell viability, was used to determine cell viability after an NMDA-induced cytotoxic insult. […] However, since raw fluorescence counts vary from experiment to experiment, FIGS. 2A, 2B, and 2C are expressed as a percent of control.
(§1) Glutamate toxicity dose response in the presence of a constant 1 mM glycine concentration was measured in the differentiated P19 neurons. The curve generated through the data points is the average of 6 separate dose response curves. Data points are represented as the percent of control cells ±standard error. % control=(([Glutamate]exp−[Glutamate]max)/(Controlvehicle−[Glutamate]max))×100.
Data points are the average ±standard error of three separate experiments.
These cells were used to measure the effects of various known kinase inhibitors (Compound Identification (ID) column in Table I) upon cytotoxicity-induced by NMDA. First, P19 cells were differentiated as described in Example 2. Then cells were exposed to 3 mM of glutamate in the presence of 1 mM glycine.
Cell viability was determined. Compounds that prevented excitotoxicity were determined by measuring the percentage of viable cells compared to differentiated P19 cells that were not presented with a toxic insult (Table I).
Cell viability was measured using two methods. The first method was a confocal, single-cell fluorescence imaging-based method using the live cell dye carboxy-fluorescein diacetate (CFDA). CFDA labels the cell bodies and processes of living cells. […] CFDA fluorescence was measured using a modified Attofluor Imager device (Atto Instruments, Rockville Pike, Md.). Cells were labeled with 1 uM CFDA for 15 min in media, then placed onto the stage of the Attofluor microscope. The dye was excited by light from a mercury lamp source passed through a 488 nm bandpass filter of 10 nm band width, passed through a CARV real-time confocal spinning disk module (Atto Instruments, Rockville, Md.), and then passed through a 40× oil immersion objective (Zeiss Fluar, NA=1.3). Emitted light was transmitted through a 495 nm dichroic mirror, collected to an Attofluor intensified CCD camera, and images were visualized using Attofluor RatioVision software (Atto Instruments, Rockville, Md.).
The second method for measuring cell viability was a plate reader method. Cells plated into black 96 well plates (Packard viewplates) are loaded with 5% Alamar Blue dye (Biosource International). Alamar Blue is a dye that takes advantage of mitochondrial reductases to convert non-fluorescent resazurin to fluorescent resorufin (excitation 535 nm, emission 580 nm). Baseline fluorescence counts were read at room temperature in a Wallac plate reader immediately after addition of Alamar blue. Fluorescence counts of cell viability were taken the same way after 1 hour incubation at 37° C. Fluorescence was expressed as a percent of control, untreated cells after subtraction of background fluorescence. Live/dead cells were confirmed visually with a light microscope. […]
Background: The colour change of resazurin is a common sign of viable cells or microbes.

Data set [2] deals with NMDA receptor. To be noted: P19 membranes; concentration-dependent.
Protocol: MK-801 inhibition of [^3H]-MK-801 binding was assayed in P19 membranes. MK-801 concentrations are expressed as 10^−x Molar. Data points represent the mean ±standard error from eight experiments. % control=((CPM−CPMbottom)/(CPMtop−CPMbottom))×100.
Data points represent the mean ±standard error from eight experiments.
The test system of data set [3] is NMDA receptor. The following applies: 3 mM glutamate, 1 mM glycine; MK-801 100 μM, U0126 10 μM.
Protocol: Cells were loaded with 5 μM Fura-2-AM (Molecular Probes) for 1 hr at 37° C. They were washed once with Hank's balanced salt solution (HBSS, Gibco BRL), and assayed in HBSS buffer. Cells were placed onto the stage of a modified ATTOFLUOR™ Imager (Atto Instruments, Rockville Pike, Md.). High speed, dual excitation of fura-2 was carried out using a RATIOARC™ High-Speed Excitor (Atto Instruments). Mercury lamp light was passed through 334 nm or 380 nm bandpass filters (10 nm band width), and then passed through a 20× objective (Zeiss, Plan-Apochromat, NA=0.75) at a rate of 2.5 Hz. Emitted light was transmitted through a 400 nm dichroic mirror, and collected to an ATTOFLUORT intensified CCD camera. Ratio-images were acquired, and the average intensity of the images when excited at 334 nm and 380 nm was analyzed using ATTOFLUOR RATIOVISION™ software (Atto Instruments, Rockville, Md.).
MK-801 was administered 24 hours prior to assay. Traces are the average ±standard error from three separate experiments for each condition. […] MK-801 inhibition of [^3H]-MK-801 binding was assayed in P19 membranes. MK-801 concentrations are expressed as 10^−x Molar. Data points represent the mean ±standard error from eight experiments. % control=((CPM−CPMbottom)/(CPMtop−CPMbottom))×100.
Traces are the average ±standard error from four separate experiments for each condition.
For a further data set, the target named is T1, CDK1 (Homo sapiens, UniProt P06493).
T1 construct: host or cells: insect cells
T1 sequence (P06493 whole entry): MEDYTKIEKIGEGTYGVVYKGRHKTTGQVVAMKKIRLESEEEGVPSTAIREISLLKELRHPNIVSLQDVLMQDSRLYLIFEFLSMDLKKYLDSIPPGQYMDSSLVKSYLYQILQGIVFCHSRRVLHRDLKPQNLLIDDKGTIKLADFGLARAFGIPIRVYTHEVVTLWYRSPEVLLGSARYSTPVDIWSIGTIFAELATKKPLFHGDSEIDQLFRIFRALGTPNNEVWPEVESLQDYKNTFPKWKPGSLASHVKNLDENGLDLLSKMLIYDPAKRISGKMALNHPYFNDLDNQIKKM
T1 sequence (P14635 whole entry partner): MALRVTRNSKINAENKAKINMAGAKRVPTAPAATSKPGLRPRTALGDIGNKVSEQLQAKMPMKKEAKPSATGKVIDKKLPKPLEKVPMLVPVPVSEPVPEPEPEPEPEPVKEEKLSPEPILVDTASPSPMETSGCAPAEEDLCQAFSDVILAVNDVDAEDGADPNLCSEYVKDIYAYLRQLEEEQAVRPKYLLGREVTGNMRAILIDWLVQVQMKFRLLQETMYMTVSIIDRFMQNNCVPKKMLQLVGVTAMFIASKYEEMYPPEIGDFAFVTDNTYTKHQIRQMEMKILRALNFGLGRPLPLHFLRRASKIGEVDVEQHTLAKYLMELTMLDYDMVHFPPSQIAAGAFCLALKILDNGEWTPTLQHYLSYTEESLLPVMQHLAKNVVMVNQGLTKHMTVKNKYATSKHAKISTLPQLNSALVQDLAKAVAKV
As to the kind of experiment: Kinase assay (33P Flashplate), CDK1. To be noted: mean of at least two curves. The data set is classed as biochemical. The method, then: (§2) The general procedure used to assay for kinase activity was as follows: a kinase reaction mix was prepared in 50 mM Tris-HCl pH=8, 10 mM MgCl2, 0.1 mM Na3VO4, 1 mM DTT, 10 μM ATP, 0.25-1 μM biotinylated peptide substrate, 0.2-0.8 [Curies per well ^33P-γ-ATP [2000-3000 Ci/mmol]. Assay conditions varied slightly for each protein kinase, for example, insulin receptor kinase requires 10 mM MnCl2 for activity and calmodulin-dependent protein kinase requires calmodulin and 10 mM CaCl2. Reaction mix was dispensed into the wells of a streptavidin-coated Flashplate and 1 μl drug stock in 100% DMSO was added to a 100 μL reaction volume resulting in a final concentration of 1% DMSO in the reaction. Enzyme was diluted in 50 mM Tris-HCl pH=8.0, 0.1% BSA and added to each well. […] Test compounds were assayed in duplicate at 8 concentrations ranging from 100 μM to 10 μM in one order of magnitude steps. […] The IC50 was calculated from the dose response curve of the percent inhibition of the maximum signal in the assay according to the formula [max signal−background/test compound signal−background×(100)]=% inhibition by graphing the percent inhibition against the log concentration of test compound.
(§3) Casein Kinase 1 is a truncation at amino acid 318 of the C-terminal portion of the rat CK1 delta isoform produced in E. coli.

In the next data set the target is T2, PK A (Bos taurus, UniProt P00517).
T2 construct: Protein Kinase A is the catalytic subunit of cAMP-dependent protein kinase-A purified from bovine heart; from tissue; host or cells: bovine heart
As to the kind of experiment: Kinase assay (33P Flashplate), Protein Kinase A. The data set is classed as biochemical, bovine. To be noted: mean of at least two curves; read-out: PK A. As for the experimental part:
Assay conditions varied slightly for each protein kinase, for example, insulin receptor kinase requires 10 mM MnCl2 for activity and calmodulin-dependent protein kinase requires calmodulin and 10 mM CaCl2. Reaction mix was dispensed into the wells of a streptavidin-coated Flashplate and 1 μl drug stock in 100% DMSO was added to a 100 μL reaction volume resulting in a final concentration of 1% DMSO in the reaction. Enzyme was diluted in 50 mM Tris-HCl pH=8.0, 0.1% BSA and added to each well. The reaction was incubated for one hour at 30° C. in the presence of compound. After one hour the reaction mix was aspirated from the plate and the plate was washed with PBS containing 100 mM EDTA. The plate was read on a scintillation counter to determine ^33P-γ-ATP incorporated into the immobilized peptide. Test compounds were assayed in duplicate at 8 concentrations ranging from 100 μM to 10 μM in one order of magnitude steps. A maximum and minimum signal for the assay was determined on each plate. The IC50 was calculated from the dose response curve of the percent inhibition of the maximum signal in the assay according to the formula [max signal−background/test compound signal−background×(100)]=% inhibition by graphing the percent inhibition against the log concentration of test compound. Known inhibitor compounds appropriate for the kinase being assayed were also included on each plate. […]

The target of a further data set is T3, PKC-γ (Homo sapiens, UniProt P05129).
T3 construct: host or cells: insect cells
Briefly: Kinase assay (33P Flashplate), PKC-γ. In kind it is biochemical. The following applies: mean of at least two curves. As for the experimental part: as §2, §3

The target of another data set is T4, Casein Kinase 1 (Rattus norvegicus, UniProt Q06486).
T4 construct: a truncation at amino acid 318 of the C-terminal portion of the rat CK1 delta isoform; host or cells: E. coli
T4 sequence (Q06486 1-317): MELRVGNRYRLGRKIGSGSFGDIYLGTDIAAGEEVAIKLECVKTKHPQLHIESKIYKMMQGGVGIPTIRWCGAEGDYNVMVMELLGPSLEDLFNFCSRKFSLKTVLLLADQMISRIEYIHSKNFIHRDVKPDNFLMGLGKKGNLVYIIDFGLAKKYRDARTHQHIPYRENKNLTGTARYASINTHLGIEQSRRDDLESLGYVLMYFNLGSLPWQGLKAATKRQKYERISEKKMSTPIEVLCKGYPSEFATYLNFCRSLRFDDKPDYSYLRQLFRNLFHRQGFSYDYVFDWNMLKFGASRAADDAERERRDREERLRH
Briefly: Kinase assay (33P Flashplate), Casein Kinase 1. The following applies: mean of at least two curves. The data set is classed as biochemical. As for the experimental part: as §2, §3

Another data set deals with T5, Casein Kinase 2 (Homo sapiens, UniProt P68400).
T5 construct: host or cells: E. coli
T5 sequence (P68400 whole entry): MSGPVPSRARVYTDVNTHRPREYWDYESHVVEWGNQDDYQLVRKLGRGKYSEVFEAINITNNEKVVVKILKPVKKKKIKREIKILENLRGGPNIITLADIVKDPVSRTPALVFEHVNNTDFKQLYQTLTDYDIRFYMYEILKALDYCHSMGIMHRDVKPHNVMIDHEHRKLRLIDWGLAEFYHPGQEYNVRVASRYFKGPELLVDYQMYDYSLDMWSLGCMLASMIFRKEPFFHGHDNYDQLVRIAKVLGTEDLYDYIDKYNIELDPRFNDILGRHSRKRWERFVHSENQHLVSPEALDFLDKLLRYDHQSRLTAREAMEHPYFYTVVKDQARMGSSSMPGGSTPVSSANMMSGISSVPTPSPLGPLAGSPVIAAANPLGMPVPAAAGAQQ
T5 sequence (P67870 whole entry partner): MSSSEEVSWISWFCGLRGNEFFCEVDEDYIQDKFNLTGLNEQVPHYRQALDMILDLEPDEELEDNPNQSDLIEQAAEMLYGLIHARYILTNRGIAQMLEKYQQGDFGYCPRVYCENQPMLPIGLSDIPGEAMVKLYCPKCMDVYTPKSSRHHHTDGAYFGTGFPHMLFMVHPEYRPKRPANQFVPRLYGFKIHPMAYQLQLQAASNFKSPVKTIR
As to the kind of experiment: Kinase assay (33P Flashplate), Casein Kinase 2. In kind it is biochemical. The following applies: mean of at least two curves. The method, then:
as §2, §3

The next data set concerns the target T6, Calmodulin Kinase (Rattus norvegicus, UniProt P11275).
T6 construct: host or cells: insect cells
As to the kind of experiment: Kinase assay (33P Flashplate), Calmodulin Kinase. In kind it is biochemical. The following applies: mean of at least two curves. As for the experimental part: as §2, §3

A further data set addresses T7, Insulin Receptor Kinase (Homo sapiens, UniProt P06213).
T7 construct: Insulin Receptor Kinase consists of residues 941-1313 of the cytoplasmic domain of the beta-subunit of the human insulin receptor
As to the kind of experiment: Kinase assay (33P Flashplate), Insulin Receptor Kinase. The following applies: mean of at least two curves. The data set is classed as biochemical. The method, then:
as §2, §3

In the next data set the target is p60^c-src (Homo sapiens, UniProt P12931). To be noted: from the literature; read-out: Potency, p60^c-src; cited from earlier work.
A further data set addresses EGF receptor (Homo sapiens, UniProt P00533). To be noted: from the literature; read-out: Potency, EGF receptor; cited from earlier work.
For data set [4], the system named is P19 neurons. To be noted: mouse, 1 mM. The method, then:
as §1

The target in a further data set is CAMKII. The following applies: from the literature; read-out: Potency, CAMKII; cited from earlier work.
A further data set relates to PKC. To be noted: from the literature; read-out: Potency, PKC; cited from earlier work.
For another data set, the target named is PKA (Homo sapiens, UniProt P17612). To be noted: from the literature; read-out: Potency, PKA; cited from earlier work.
The next data set has as its target T8, PKG (Homo sapiens, UniProt Q13976).
T8 sequence (Q13976 1-671): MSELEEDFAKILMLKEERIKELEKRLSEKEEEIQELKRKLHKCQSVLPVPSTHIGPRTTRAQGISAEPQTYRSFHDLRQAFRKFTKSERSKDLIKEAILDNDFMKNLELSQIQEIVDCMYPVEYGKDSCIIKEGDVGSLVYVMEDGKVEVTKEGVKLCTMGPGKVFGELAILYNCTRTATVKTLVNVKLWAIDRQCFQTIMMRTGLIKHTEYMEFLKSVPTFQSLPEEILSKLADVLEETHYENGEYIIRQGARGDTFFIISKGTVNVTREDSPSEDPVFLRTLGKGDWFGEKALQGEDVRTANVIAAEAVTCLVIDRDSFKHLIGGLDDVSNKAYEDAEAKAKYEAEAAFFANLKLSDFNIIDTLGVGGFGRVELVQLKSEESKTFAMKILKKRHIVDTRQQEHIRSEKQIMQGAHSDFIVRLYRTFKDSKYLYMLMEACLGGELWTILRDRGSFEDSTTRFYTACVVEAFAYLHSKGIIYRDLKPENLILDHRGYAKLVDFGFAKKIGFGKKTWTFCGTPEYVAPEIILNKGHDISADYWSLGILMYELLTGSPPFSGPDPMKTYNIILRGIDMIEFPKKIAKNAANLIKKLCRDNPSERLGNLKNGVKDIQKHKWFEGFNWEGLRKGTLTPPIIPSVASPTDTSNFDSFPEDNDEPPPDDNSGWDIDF
The following applies: from the literature; read-out: Potency, PKG; cited from earlier work.

Data set [5] concerns P19 neurons. As to the kind of experiment: A23187-induced toxicity in P19 neurons (Alamar blue). In kind it is cell-based, murine. To be noted: Mus musculus, Neuron, 24 h. The method, then: Cells were then assayed for Alamar blue fluorescence. […] Data points are represented as percent of control cells ±standard error.
[6] abbreviates: Mus musculus, Neuron, 3 mM glutamate + 1 mM glycine.
Setting [7] is: 3 mM glutamate + 1 mM glycine, mean of three separate curves.

Chain of EGF receptor (P00533 25-1210): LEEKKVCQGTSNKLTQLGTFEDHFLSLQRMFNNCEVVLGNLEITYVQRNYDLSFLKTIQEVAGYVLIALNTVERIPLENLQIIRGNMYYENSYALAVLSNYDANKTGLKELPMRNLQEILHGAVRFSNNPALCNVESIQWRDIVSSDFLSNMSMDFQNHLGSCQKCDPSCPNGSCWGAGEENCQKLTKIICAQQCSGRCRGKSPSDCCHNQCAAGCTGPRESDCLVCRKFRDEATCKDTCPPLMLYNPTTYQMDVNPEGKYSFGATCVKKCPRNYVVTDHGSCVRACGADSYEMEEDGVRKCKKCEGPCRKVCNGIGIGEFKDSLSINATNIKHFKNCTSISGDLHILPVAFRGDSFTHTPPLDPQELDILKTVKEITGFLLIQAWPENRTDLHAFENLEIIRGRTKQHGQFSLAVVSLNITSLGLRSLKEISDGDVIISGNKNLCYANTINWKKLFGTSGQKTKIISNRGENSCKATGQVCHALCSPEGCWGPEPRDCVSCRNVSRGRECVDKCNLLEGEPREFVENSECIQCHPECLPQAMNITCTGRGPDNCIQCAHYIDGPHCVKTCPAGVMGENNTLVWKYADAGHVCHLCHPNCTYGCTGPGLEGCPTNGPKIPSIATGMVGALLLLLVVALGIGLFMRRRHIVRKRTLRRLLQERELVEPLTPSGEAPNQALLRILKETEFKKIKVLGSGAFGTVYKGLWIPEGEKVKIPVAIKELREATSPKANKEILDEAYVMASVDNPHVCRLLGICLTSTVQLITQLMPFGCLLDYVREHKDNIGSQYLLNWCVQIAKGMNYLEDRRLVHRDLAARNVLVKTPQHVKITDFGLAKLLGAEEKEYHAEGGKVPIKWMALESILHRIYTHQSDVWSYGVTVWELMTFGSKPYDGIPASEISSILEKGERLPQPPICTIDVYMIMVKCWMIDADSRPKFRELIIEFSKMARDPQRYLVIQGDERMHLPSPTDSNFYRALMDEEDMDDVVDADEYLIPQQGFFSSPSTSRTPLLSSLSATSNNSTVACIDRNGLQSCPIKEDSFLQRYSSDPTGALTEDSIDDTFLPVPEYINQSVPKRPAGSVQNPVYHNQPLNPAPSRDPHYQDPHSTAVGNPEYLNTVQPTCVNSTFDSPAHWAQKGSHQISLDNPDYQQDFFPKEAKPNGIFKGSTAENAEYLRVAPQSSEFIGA
T7 sequence (P06213 980-1352): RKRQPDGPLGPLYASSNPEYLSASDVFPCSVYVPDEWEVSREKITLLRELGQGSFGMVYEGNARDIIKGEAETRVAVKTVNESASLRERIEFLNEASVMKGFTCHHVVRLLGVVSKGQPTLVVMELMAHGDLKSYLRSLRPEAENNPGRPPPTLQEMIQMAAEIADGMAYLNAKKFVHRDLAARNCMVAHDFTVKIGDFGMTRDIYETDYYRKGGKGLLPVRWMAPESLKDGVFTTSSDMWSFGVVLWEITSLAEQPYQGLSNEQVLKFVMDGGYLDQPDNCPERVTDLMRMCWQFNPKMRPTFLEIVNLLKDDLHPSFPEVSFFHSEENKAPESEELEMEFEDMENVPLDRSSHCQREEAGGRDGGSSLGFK
T6 sequence (P11275 1-325): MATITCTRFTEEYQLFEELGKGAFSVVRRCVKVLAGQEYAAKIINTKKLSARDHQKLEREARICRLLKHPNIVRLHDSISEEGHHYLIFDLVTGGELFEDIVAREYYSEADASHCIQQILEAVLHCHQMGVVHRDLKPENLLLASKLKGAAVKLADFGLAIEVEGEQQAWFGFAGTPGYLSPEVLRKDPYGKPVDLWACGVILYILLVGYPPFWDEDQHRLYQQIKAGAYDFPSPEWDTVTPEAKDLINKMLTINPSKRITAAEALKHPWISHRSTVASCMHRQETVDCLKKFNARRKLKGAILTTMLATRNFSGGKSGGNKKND

On to `C[C@]12N[C@H](Cc3ccccc31)c1ccccc12` [MK-801], for which the “Maximal protection against glutamate toxicity” value in data set [1] (3 mM glutamate and 1 mM glycine-induced P19 neuron death) is recorded as “close to control levels”. The “inhibition of [3H]-MK-801 binding” value with NMDA receptor [2] was found to be 100%. Besides, the “effect on glutamate/glycine-induced intracellular calcium response” value in the data set on NMDA receptor [3] is given as “significantly inhibited”.
With `COc1cc(N)nc2[nH]c(-c3ccc(F)cc3)c(-c3ccncc3)c12` [Compound A], the IC50 is 9.7 µM in [1] (Mus musculus, Neuron, 3 mM glutamate + 1 mM glycine, mean of three separate curves); > 100 µM against CDK1; > 100 µM at PK A; 8.35 µM on PKC-γ; 0.116 µM against Casein Kinase 1; > 100 µM against Casein Kinase 2. The IC50 against Calmodulin Kinase and against Insulin Receptor Kinase was > 100 µM each time. Besides, the Emax in data set [1] (setting [6]) is > 80%.
Take `O=C(O)c1cc(N(Cc2ccccc2O)Cc2cc(O)ccc2O)ccc1O` [Lavendustin A]: the “Maximal Efficacy for Neuroprotection” value in data set [1] (3 mM glutamate + 1 mM glycine) was <25%. For the same molecule, the IC50 in data set [1] (setting [7]) is > 10 µM; at p60^c-src, ~0.5 µM; on EGF receptor it was ~0.011 µM.
As to `NCC(=O)O` [Glycine], the “effect on basal P19 neuron viability” value in the data set with P19 neurons [4] is “did not affect P19 neuron viability”.
As for `CN([C@@H](Cc1ccc(OS(=O)(=O)c2cccc3cnccc23)cc1)C(=O)N1CCN(c2ccccc2)CC1)S(=O)(=O)c1cccc2cnccc12` [KN62], the “Maximal Efficacy for Neuroprotection” value in data set [1] (3 mM glutamate + 1 mM glycine) was <10%. Further, the “IC50 for Neuroprotection [lower-upper 95% C.I.]” value in data set [1] (setting [7]) was “Ineffective”. For the same molecule, the Ki on CAMKII is ~0.9 µM.
For `N[C@@H](CCC(=O)O)C(=O)O` [Glutamate], the “reduction in Alamar blue fluorescence” value in [1] (3 mM glutamate and 1 mM glycine for 24 hours) came out at 60%. In addition, the EC50 in data set [1] (constant 1 mM glycine, 24 hours, average of 6 curves, read-out: Glutamate toxicity EC50) worked out at 8.1 µM.
For Calphostin C, in data set [1] (3 mM glutamate + 1 mM glycine), the “Maximal Efficacy for Neuroprotection” value was “˜50%”. For the same molecule, the IC50 in data set [1] (setting [7]) was > 1 µM; in the data set with PKC, ~0.05 µM; on PKA, > 50 µM; at PKG, > 25 µM; at p60^c-src, > 50 µM.
Turning to `CNc1ccc2oc(C[C@H]3O[C@@]4(CC[C@H]3C)O[C@H]([C@H](C)C(=O)c3ccc[nH]3)[C@H](C)C[C@H]4C)nc2c1C(=O)O` [A23187], the EC50 in the data set with P19 neurons [5] (read-out: EC50 for A23187 toxicity, 24 hours, in the absence of U0126) turned out to be 0.52 µM; in the data set with P19 neurons [5] (read-out: EC50 for A23187 toxicity, 24 hours, in the presence of 10 μM U0126), 0.833 µM.
In the case of `[Li]` [Lithium], the Emax in [1] (setting [6]) is < 10%.

Usually EC50 stands for the concentration giving half of the maximal effect.
